Data on one compound can be found in paper PMC5882964, “Aspermerodione, a novel fungal metabolite with an unusual 2,6-dioxabicyclo[2.2.1]heptane skeleton, as an inhibitor of penicillin-binding protein 2a” (Scientific Reports, 2018).

The target in this assay is T1, penicillin-binding protein 2a (PBP2a) (Staphylococcus aureus, UniProt Q7DHH4).
T1 construct: gene mecA; residues 23-668, pET28a, from mecA of Staphylococcus aureus ATCC 43300
The assay is described as follows: microscale thermophoresis (MST) with labelled recombinant PBP2a. On the technique in general: Microscale thermophoresis detects binding through changes in fluorescence in a small temperature gradient.

The Kd is a measure of binding affinity in units of concentration.

T1 sequence (Q7DHH4 entry or part of it): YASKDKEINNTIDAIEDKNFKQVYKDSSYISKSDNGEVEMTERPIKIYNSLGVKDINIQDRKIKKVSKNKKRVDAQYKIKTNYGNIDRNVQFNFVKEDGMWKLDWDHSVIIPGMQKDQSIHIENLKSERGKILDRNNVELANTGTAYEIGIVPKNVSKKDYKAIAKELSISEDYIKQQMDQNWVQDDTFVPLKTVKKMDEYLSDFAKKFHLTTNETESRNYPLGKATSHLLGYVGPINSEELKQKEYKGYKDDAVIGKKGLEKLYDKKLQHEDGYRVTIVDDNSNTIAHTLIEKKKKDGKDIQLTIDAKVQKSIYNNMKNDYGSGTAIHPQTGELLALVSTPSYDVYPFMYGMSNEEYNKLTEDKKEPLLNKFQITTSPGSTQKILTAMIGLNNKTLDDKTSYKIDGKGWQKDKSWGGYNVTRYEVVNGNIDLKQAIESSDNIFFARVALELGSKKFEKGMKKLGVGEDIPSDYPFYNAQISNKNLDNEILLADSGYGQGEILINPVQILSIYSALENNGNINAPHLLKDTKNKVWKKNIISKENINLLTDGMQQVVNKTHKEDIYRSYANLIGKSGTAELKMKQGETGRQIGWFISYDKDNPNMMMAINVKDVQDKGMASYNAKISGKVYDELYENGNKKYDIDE

For `COC(=O)C1=C[C@]2(C)C[C@@]34CC[C@H]5C(C)(C)C(=O)C=C[C@]5(C)[C@]35OC[C@]14[C@](C)(CC2=O)O5` [compound 1, aspermerodione], the dissociation constant (Kd) worked out at 18.4 ± 1.29 µM.
